Source: patent EP4596574A1, “GLP-1/GCG/GIP TRIPLE-RECEPTOR AGONIST AND USE THEREOF” (Sunshine Lake Pharma Co., Ltd., priority 2022, dated 2024)
Starred links: 1 amine or outer side, 2 acyl side, 3 side chain; linkers in the order of their positions; H or OH if unused. Non-standard residues stand in square brackets, D forms with d. Residues, ends and D or L forms follow the SMILES beside them. Groups on a side chain read outwards from the residue. *: point of attachment. C18 diacid = O=C(O)CCCCCCCCCCCCCCCCC(=O)*; αMePhe(2-F) = C[C@](N)(Cc1ccccc1F)C(=O)O; γGlu = O=C(O)[C@H](CCC(=O)[*:2])N[*:1]; AEEA = NCCOCCOCC(=O)O; Aib = CC(C)(N)C(=O)O

What was measured:
Format in all cases: cell-based
GIPR = target: T1, GIPR (Homo sapiens, UniProt P48546); test: In vitro cell activity, cAMP production in HEK293 cells expressing GIPR; details: HEK293-GIPR cells, cAMP; read-out: GIPR (EC50)
T1 construct: expressed in transfected cells; host or cells: HEK293 (HEK293-GIPR)
T1 sequence (P48546 22-466): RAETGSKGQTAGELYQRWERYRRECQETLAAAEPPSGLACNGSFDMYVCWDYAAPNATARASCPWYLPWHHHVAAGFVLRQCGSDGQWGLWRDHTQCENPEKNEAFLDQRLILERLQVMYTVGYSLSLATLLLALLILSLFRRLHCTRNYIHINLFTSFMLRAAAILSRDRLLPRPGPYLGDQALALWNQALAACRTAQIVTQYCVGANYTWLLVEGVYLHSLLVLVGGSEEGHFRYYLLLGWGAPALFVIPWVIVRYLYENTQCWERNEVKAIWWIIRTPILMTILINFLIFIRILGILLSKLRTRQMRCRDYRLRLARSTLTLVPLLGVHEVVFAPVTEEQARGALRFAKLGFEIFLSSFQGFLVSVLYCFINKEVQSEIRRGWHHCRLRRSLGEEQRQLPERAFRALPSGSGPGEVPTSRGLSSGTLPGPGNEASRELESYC
Method in brief: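 HEK293 cells expressing human GIPR, thawed and diluted to 4×10^5 cells/mL, are stimulated with test compound. cAMP is measured by HTRF competition between cAMP-d2 and anti-cAMP cryptate. EC50 comes from a four-parameter nonlinear fit of signal ratio against concentration.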

GLP-1R = target: T2, GLP-1R (Homo sapiens, UniProt P43220); test: In vitro cell activity, cAMP production in HEK293 cells expressing GLP-1R; details: HEK293-GLP-1R cells, cAMP; read-out: GLP-1R (EC50)
T2 construct: expressed in transfected cells; host or cells: HEK293 (HEK293-GLP-1R)
Method in brief: (§1)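 HEK293 transfectants, 4×10^5 cells/mL, 384-well. Detection: cAMP-d2 + anti-cAMP cryptate 1:1, RT 1 h dark or 4 °C o/n. Read 665/620 nm; 4-parameter nonlinear fit → EC50.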

GCGR = target: T3, GCGR (Homo sapiens, UniProt P47871); test: In vitro cell activity, cAMP production in HEK293 cells expressing GCGR; details: HEK293-GCGR cells, cAMP; read-out: GCGR (EC50)
T3 construct: expressed in transfected cells; host or cells: HEK293 (HEK293-GCGR)
Method in brief: as §1

T2 sequence (P43220 24-463, species assumed): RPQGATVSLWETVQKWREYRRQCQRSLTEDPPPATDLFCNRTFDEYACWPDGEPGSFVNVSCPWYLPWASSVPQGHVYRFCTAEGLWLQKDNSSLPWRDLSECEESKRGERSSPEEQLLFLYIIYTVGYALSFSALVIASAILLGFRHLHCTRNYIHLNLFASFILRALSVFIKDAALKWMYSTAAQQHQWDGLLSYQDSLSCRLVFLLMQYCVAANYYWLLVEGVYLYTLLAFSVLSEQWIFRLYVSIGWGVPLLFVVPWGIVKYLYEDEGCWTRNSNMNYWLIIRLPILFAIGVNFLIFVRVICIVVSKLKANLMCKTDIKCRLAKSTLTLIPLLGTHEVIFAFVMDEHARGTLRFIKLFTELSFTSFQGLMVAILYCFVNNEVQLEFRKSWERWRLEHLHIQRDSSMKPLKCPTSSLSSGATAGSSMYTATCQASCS
T3 sequence (P47871 26-477, species assumed): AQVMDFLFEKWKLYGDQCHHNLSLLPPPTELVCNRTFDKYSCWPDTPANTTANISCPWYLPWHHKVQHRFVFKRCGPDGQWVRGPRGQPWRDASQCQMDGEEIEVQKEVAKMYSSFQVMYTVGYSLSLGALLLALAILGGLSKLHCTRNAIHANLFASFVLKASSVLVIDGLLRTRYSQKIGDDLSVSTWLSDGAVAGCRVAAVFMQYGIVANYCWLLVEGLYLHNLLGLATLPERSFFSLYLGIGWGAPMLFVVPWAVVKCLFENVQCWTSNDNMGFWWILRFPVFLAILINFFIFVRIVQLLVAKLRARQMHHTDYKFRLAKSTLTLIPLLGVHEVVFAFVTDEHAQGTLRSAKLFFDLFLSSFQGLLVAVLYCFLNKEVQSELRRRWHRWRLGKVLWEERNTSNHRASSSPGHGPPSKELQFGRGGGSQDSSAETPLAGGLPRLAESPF

SMILES: CC[C@H](C)[C@H](NC(=O)[C@H](CCCCN)NC(=O)[C@H](CC(=O)O)NC(=O)[C@H](CCCCNC(=O)COCCOCCNC(=O)CC[C@H](NC(=O)CCCCCCCCCCCCCCCCC(=O)O)C(=O)O)NC(=O)[C@H](CC(C)C)NC(=O)[C@@H](NC(=O)[C@H](CO)NC(=O)[C@H](Cc1ccc(O)cc1)NC(=O)[C@H](CC(=O)O)NC(=O)[C@H](CO)NC(=O)[C@@H](NC(=O)[C@](C)(Cc1ccccc1F)NC(=O)[C@@H](NC(=O)CNC(=O)[C@H](CCC(N)=O)NC(=O)C(C)(C)NC(=O)[C@@H](N)Cc1ccc(O)cc1)[C@@H](C)O)[C@@H](C)O)[C@@H](C)CC)C(=O)N[C@@H](C)C(=O)N[C@@H](CCC(N)=O)C(=O)N[C@@H](CCCCN)C(=O)N[C@@H](C)C(=O)N[C@@H](Cc1ccccc1)C(=O)N[C@H](C(=O)N[C@@H](CCC(=O)O)C(=O)N[C@@H](Cc1ccc(O)cc1)C(=O)N[C@@H](CC(C)C)C(=O)N[C@@H](CC(C)C)C(=O)N[C@@H](CCC(=O)O)C(=O)NCC(=O)NCC(=O)N1CCC[C@H]1C(=O)N[C@@H](CO)C(=O)N[C@@H](CO)C(=O)NCC(=O)N[C@@H](C)C(=O)N1CCC[C@H]1C(=O)N1CCC[C@H]1C(=O)N1CCC[C@H]1C(=O)N[C@@H](CO)C(N)=O)[C@@H](C)CC [HEC-PT141] (H-Y[Aib]QGT[αMePhe(2-F)]TSDYSILK([AEEA-γGlu-C18 diacid])DKIAQKAFIEYLLEGGPSSGAPPPS-NH2)
- EC50 (GIPR): 0.0955 nM
- EC50 (GLP-1R): 0.163 nM
- EC50 (GCGR): 0.216 nM

SMILES: CC[C@H](C)[C@H](NC(=O)[C@H](Cc1ccccc1)NC(=O)[C@H](C)NC(=O)[C@H](CCCNC(=N)N)NC(=O)[C@H](CCC(N)=O)NC(=O)[C@H](CCCNC(=N)N)NC(=O)[C@H](CCCCNC(=O)COCCOCCNC(=O)CC[C@H](NC(=O)CCCCCCCCCCCCCCCCC(=O)O)C(=O)O)NC(=O)[C@H](CCC(=O)O)NC(=O)[C@H](CC(=O)O)NC(=O)[C@H](CC(C)C)NC(=O)[C@H](CC(C)C)NC(=O)[C@@H](NC(=O)[C@H](CO)NC(=O)[C@H](Cc1ccc(O)cc1)NC(=O)[C@H](CC(=O)O)NC(=O)[C@H](CO)NC(=O)[C@@H](NC(=O)[C@](C)(Cc1ccccc1F)NC(=O)[C@@H](NC(=O)CNC(=O)[C@H](CCC(N)=O)NC(=O)C(C)(C)NC(=O)[C@@H](N)Cc1ccc(O)cc1)[C@@H](C)O)[C@@H](C)O)[C@@H](C)CC)C(=O)N[C@@H](CCC(=O)O)C(=O)N[C@@H](Cc1ccc(O)cc1)C(=O)N[C@@H](CC(C)C)C(=O)N[C@@H](CC(C)C)C(=O)N[C@@H](C)C(=O)NCC(=O)NCC(=O)N1CCC[C@H]1C(=O)N[C@@H](CO)C(=O)N[C@@H](CO)C(=O)NCC(=O)N[C@@H](C)C(=O)N1CCC[C@H]1C(=O)N1CCC[C@H]1C(=O)N1CCC[C@H]1C(=O)N[C@@H](CO)C(=O)O [HEC-PT134]
- EC50 (GIPR): 0.207 nM
- EC50 (GLP-1R): 0.146 nM
- EC50 (GCGR): 0.862 nM

SMILES: CC[C@H](C)[C@H](NC(=O)[C@H](CC(C)C)NC(=O)[C@H](Cc1c[nH]c2ccccc12)NC(=O)[C@H](CCC(=O)O)NC(=O)[C@@H](NC(=O)[C@H](Cc1ccccc1)NC(=O)[C@H](CC(=O)O)NC(=O)[C@H](CCC(N)=O)NC(=O)[C@H](CCC(N)=O)NC(=O)[C@H](C)NC(=O)[C@H](CCCCNC(=O)COCCOCCNC(=O)CC[C@H](NC(=O)CCCCCCCCCCCCCCCCCCC(=O)O)C(=O)O)NC(=O)[C@H](CCC(=O)O)NC(=O)[C@H](CC(=O)O)NC(=O)[C@H](CC(C)C)NC(=O)[C@H](CC(C)C)NC(=O)[C@@H](NC(=O)[C@H](CO)NC(=O)[C@H](Cc1ccc(O)cc1)NC(=O)[C@H](CC(=O)O)NC(=O)[C@H](CO)NC(=O)[C@@H](NC(=O)[C@](C)(Cc1ccccc1F)NC(=O)[C@@H](NC(=O)CNC(=O)[C@H](CCC(N)=O)NC(=O)C(C)(C)NC(=O)[C@@H](N)Cc1ccc(O)cc1)[C@@H](C)O)[C@@H](C)O)[C@@H](C)CC)[C@@H](C)CC)C(=O)N[C@@H](C)C(=O)NCC(=O)NCC(=O)N1CCC[C@H]1C(=O)N[C@@H](CO)C(=O)N[C@@H](CO)C(=O)NCC(=O)N[C@@H](C)C(=O)N1CCC[C@H]1C(=O)N1CCC[C@H]1C(=O)N1CCC[C@H]1C(=O)N[C@@H](CO)C(=O)O [HEC-PT69]
- EC50 (GIPR): 0.419 nM
- EC50 (GLP-1R): 2.18 nM
- EC50 (GCGR): 30.8 nM
